# Assay results as given in PMC11871328 (Communications Biology, 2025).
# Legend:
# BAG-1:HSP70 interaction = details: in words; from earlier studies; cited from earlier work
# [1] = in words; from earlier studies; cited from earlier work
# [2] = system: MCF-7 breast cancer cells; assay: MTT cell viability assay, MCF-7; format: cell-based, human; details: in words
SMILES,Inhibition of BAG-1:HSP70 interaction (BAG-1:HSP70 interaction),Solubility in water [1],Effect on viability of MCF-7 cells [2]
"CCNc1ccc(-c2nc3ccc(C)cc3s2)cc1 [Thio-2, N-Ethyl-4-(6-methyl-1,3-benzothiazol-2-yl)aniline]",moderate inhibition,poor solubility in water,–
N=C(N)NCCC[C@H](NC(=O)CN)C(=O)N[C@@H](CCCCN)C(=O)N[C@@H](CCCCN)C(=O)N[C@@H](CCCNC(=N)N)C(=O)N[C@@H](CCCNC(=N)N)C(=O)N[C@@H](CCC(N)=O)C(=O)N[C@@H](CCCNC(=N)N)C(=O)N[C@@H](CCCNC(=N)N)C(=O)N[C@@H](CCCNC(=N)N)C(=O)N1CCC[C@H]1C(=O)N[C@@H](CCC(N)=O)C(N)=O [TAT only],–,–,did not affect the viability of the cells
